Data published in ChEMBL document CHEMBL5053501, “1,4,9-Triazaspiro[5.5]undecan-2-one Derivatives as Potent and Selective METTL3 Inhibitors” (J Med Chem, 2021).
Converted amounts (≈) assume the structure as drawn. One block for each compound: values may come before it. The source made the active and inactive calls. The calls are words filed in the database; no cut-off is given here.

Columns and labels:
[1] = Kinetic solubility of the compound in PBS at pH 7.4 at 100 uM incubated for 1 hr by LCMS/MS analysis; assay type: physicochemical; conditions: read-out: Kinetic_solubility
[2] = Metabolic stability in rat liver microsomes assessed as half life by LC-MS analysis; assay type: ADME, Microsome
[3] = target: N6-adenosine-methyltransferase catalytic subunit (Homo sapiens, UniProt Q86U44); assay: Inhibition of recombinant […] (unknown origin) expressed in baculovirus infected Sf9 cells assessed as decrease in N6-methyladenosine level in oligonucleotide substrate by TR-FRET assay
Homo sapiens [4] = species: Homo sapiens; assay: Binding affinity to human METTL16 assessed as change in melting temperature at 1000 uM by thermal shift assay
Homo sapiens [5] = species: Homo sapiens; assay: Binding affinity to human METTL1 assessed as change in melting temperature at 1000 uM by thermal shift assay
[6] = target: T1, METTL3/METTL14 (Homo sapiens) (UniProt Q86U44+Q9HCE5); conditions: dose 1000.0 µM
Homo sapiens [7] = species: Homo sapiens; assay: Binding affinity to human METTL16 assessed as change in melting temperature at 100 uM by thermal shift assay
Homo sapiens [8] = species: Homo sapiens; assay: Binding affinity to human METTL1 assessed as change in melting temperature at 100 uM by thermal shift assay
[9] = Reduction in m6A/A ratio in poly-adenylated RNA fraction of human MOLM-13 cells measured after 16 hrs by UPLC-MS/MS analysis; assay type: functional, cell-based
MOLM-13 [10] = assay: Growth inhibition of human MOLM-13 cells assessed as cell viability measured after 3 days; assay type: functional; conditions: MOLM-13, 72 h, time 3 day
PC-3 [11] = assay: Growth inhibition of human PC-3 cells assessed as cell viability measured after 3 days; assay type: functional; conditions: PC-3, 72 h, time 3 day
MOLM-13 [12] = assay: Effect on METTL3 expression in human MOLM-13 cells at 10 uM incubated for 16 hrs by Western blotting analysis; assay type: functional, cell-based
PC-3 [13] = assay: Effect on METTL3 expression in human PC-3 cells at 10 uM incubated for 16 hrs by Western blotting analysis; assay type: functional, cell-based
MOLM-13 [14] = assay: Reduction in m6A levels in mRNA fraction in human MOLM-13 cells at 10 uM measured after 6 days by UPLC-MS/MS analysis; assay type: functional, cell-based; conditions: time 6.0 day
MOLM-13 [15] = assay: Reduction in m1A levels in mRNA fraction in human MOLM-13 cells at 10 uM measured after 6 days by UPLC-MS/MS analysis; assay type: functional, cell-based; conditions: time 6.0 day
MOLM-13 [16] = assay: Reduction in m7G levels in mRNA fraction in human MOLM-13 cells at 10 uM measured after 6 days by UPLC-MS/MS analysis; assay type: functional, cell-based; conditions: time 6.0 day
MOLM-13 [17] = assay: Reduction in m6A levels in total RNA fraction in human MOLM-13 cells at 10 uM measured after 6 days by UPLC-MS/MS analysis; assay type: functional, cell-based; conditions: time 6.0 day
MOLM-13 [18] = assay: Reduction in m6Am levels in total RNA fraction in human MOLM-13 cells at 10 uM measured after 6 days by UPLC-MS/MS analysis; assay type: functional, cell-based; conditions: time 6.0 day
[19] = target: T1, METTL3/METTL14 (Homo sapiens); conditions: dose 100.0 µM

Sequence of N6-adenosine-methyltransferase catalytic subunit (Q86U44 whole entry): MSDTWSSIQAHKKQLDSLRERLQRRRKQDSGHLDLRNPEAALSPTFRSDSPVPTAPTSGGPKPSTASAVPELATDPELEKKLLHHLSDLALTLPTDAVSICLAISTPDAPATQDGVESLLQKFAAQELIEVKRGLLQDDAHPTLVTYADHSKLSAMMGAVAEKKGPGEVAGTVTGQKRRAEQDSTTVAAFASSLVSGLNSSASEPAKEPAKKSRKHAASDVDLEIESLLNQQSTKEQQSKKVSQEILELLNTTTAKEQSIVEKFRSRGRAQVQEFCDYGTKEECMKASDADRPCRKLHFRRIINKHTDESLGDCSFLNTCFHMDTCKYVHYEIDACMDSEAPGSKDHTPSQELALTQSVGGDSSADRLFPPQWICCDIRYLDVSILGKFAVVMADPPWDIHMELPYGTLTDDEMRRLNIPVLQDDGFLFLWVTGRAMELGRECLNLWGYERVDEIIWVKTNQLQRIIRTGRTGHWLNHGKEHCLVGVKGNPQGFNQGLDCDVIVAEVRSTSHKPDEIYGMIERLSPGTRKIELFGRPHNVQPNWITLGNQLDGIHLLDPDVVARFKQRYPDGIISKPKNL

Structure (SMILES): CC1(C)CCN(Cc2ccc(N3CC(=O)NC4(CCN(c5nc(Cl)nc6[nH]ccc56)CC4)C3)cc2)CC1
solubility kinetic at 1 h, 100 µM [1]: 45 µM (≈ 23.5 µg/mL)
half-life [2]: 32 min

Structure (SMILES): Nc1ncnc2c1ncn2[C@@H]1O[C@H](CSCC[C@H](N)C(=O)O)[C@@H](O)[C@H]1O [S-ADENOSYLHOMOCYSTEINE]
IC50 [3]: 0.59 µM
ΔTm (Homo sapiens [4]): 0.8 °C
ΔTm (Homo sapiens [5]): 6.3 °C
ΔTm [6]: 3.7 °C

More lines, main results first:

solubility kinetic at 1 h, 100 µM [1]: 86 µM (≈ 38.7 µg/mL)
half-life [2]: 70 min
Structure (SMILES): CNc1cc(N2CC3(CN(c4ccc(CN5CCC(C)(C)CC5)cc4)CC(=O)N3)C2)ncn1

IC50 [3]: 7 µM
Structure (SMILES): CNc1cc(N2CCCC(O)(CNC(=O)c3ccc(CN4CCC(C)(C)CC4)cc3)C2)ncn1 (configuration not stated)

deltaTm (Homo sapiens [7]): inactive
deltaTm (Homo sapiens [8]): inactive
EC50 [9]: 0.7 µM
GI50 (MOLM-13 [10]): 12 µM
GI50 (PC-3 [11]): 70 µM
ΔTm [19]: 4.7 °C
Structure (SMILES): CNc1cc(N2CCC3(CC2)CN(c2cc(F)c(CN4CCC(C)(C)CC4)cc2F)CC(=O)N3)ncn1
Activity (MOLM-13 [12]): Active
Activity (PC-3 [13]): Active
Activity (MOLM-13 [14]): Active
Activity (MOLM-13 [15]): inactive
Activity (MOLM-13 [16]): inactive
Activity (MOLM-13 [17]): Active
Activity (MOLM-13 [18]): Active
